Test results from patent publication US9539252B2, “Piperazine-substituted benzothiophene derivatives as antipsychotic agents” (OTSUKA PHARMACEUTICAL CO., LTD., priority 2011, dated 2017).

assay: Solubility in oil (sesame oil, benzyl benzoate), visual observation; conditions: benzyl benzoate, oil or lipid, thermodynamic from solid

solubility, > 100 mg/mL:
CCCCCCCCCCCCCCCCCCNC(=O)OCN1C(=O)CCc2ccc(OCCCCN3CCN(c4cccc5sccc45)CC3)cc21 [Example 75, N-octadecylcarbamic acid 7-[4-(4-benzo[b]thiophen-4-ylpiperazin-1-yl)butoxy]-2-oxo-3,4-dihydro-2H-quinolin-1-ylmethyl ester]
CCCCCCCCCCCCCCCNC(=O)OCN1C(=O)CCc2ccc(OCCCCN3CCN(c4cccc5sccc45)CC3)cc21 [Example 76, N-pentadecylcarbamic acid 7-[4-(4-benzo[b]thiophen-4-ylpiperazin-1-yl)butoxy]-2-oxo-3,4-dihydro-2H-quinolin-1-ylmethyl ester]
CCC(C)C(=O)OCN1C(=O)CCc2ccc(OCCCCN3CCN(c4cccc5sccc45)CC3)cc21 (stereo not drawn) [Example 77, 2-methylbutyric acid 7-[4-(4-benzo[b]thiophen-4-ylpiperazin-1-yl)butoxy]-2-oxo-3,4-dihydro-2H-quinolin-1-ylmethyl ester]
CCCCC(C)C(=O)OCN1C(=O)CCc2ccc(OCCCCN3CCN(c4cccc5sccc45)CC3)cc21 (stereo not drawn) [Example 78, 2-methylhexanoic acid 7-[4-(4-benzo[b]thiophen-4-ylpiperazin-1-yl)butoxy]-2-oxo-3,4-dihydro-2H-quinolin-1-ylmethyl ester]
CCCCCCCCCCCCCCCCCCN(C)C(=O)OCN1C(=O)CCc2ccc(OCCCCN3CCN(c4cccc5sccc45)CC3)cc21 [Example 79, N-methyl-N-octadecylcarbamic acid 7-[4-(4-benzo[b]thiophen-4-ylpiperazin-1-yl)butoxy]-2-oxo-3,4-dihydro-2H-quinolin-1-ylmethyl ester]
O=C(NCc1ccccc1)OCN1C(=O)CCc2ccc(OCCCCN3CCN(c4cccc5sccc45)CC3)cc21 [Example 80, N-benzylcarbamic acid 7-[4-(4-benzo[b]thiophen-4-ylpiperazin-1-yl)butoxy]-2-oxo-3,4-dihydro-2H-quinolin-1-ylmethyl ester]
CCCC(C)C(=O)OCN1C(=O)CCc2ccc(OCCCCN3CCN(c4cccc5sccc45)CC3)cc21 (stereo not drawn) [Example 81, 2-methylpentanoic acid 7-[4-(4-benzo[b]thiophen-4-ylpiperazin-1-yl)butoxy]-2-oxo-3,4-dihydro-2H-quinolin-1-ylmethyl ester]
CCCCCCCCCCCCCC(=O)OCN1C(=O)CCc2ccc(OCCCCN3CCN(c4cccc5sccc45)CC3)cc21 [Example 82, tetradecanoic acid 7-[4-(4-benzo[b]thiophen-4-ylpiperazin-1-yl)butoxy]-2-oxo-3,4-dihydro-2H-quinolin-1-ylmethyl ester]
O=C(NC1CCCCC1)OCN1C(=O)CCc2ccc(OCCCCN3CCN(c4cccc5sccc45)CC3)cc21 [Example 83, N-cyclohexylcarbamic acid 7-[4-(4-benzo[b]thiophen-4-ylpiperazin-1-yl)butoxy]-2-oxo-3,4-dihydro-2H-quinolin-1-ylmethyl ester]
CCCCC(C)(C)C(=O)OCN1C(=O)CCc2ccc(OCCCCN3CCN(c4cccc5sccc45)CC3)cc21 [Example 84, 2,2-dimethylhexanoic acid 7-[4-(4-benzo[b]thiophen-4-ylpiperazin-1-yl)butoxy]-2-oxo-3,4-dihydro-2H-quinolin-1-ylmethyl ester]
CC(=O)OCN1C(=O)CCc2ccc(OCCCCN3CCN(c4cccc5sccc45)CC3)cc21 [Example 85, acetic acid 7-[4-(4-benzo[b]thiophen-4-ylpiperazin-1-yl)butoxy]-2-oxo-3,4-dihydro-2H-quinolin-1-ylmethyl ester]
O=C(OCN1C(=O)CCc2ccc(OCCCCN3CCN(c4cccc5sccc45)CC3)cc21)N1CCOCC1 [Example 86, morpholine-4-carboxylic acid 7-[4-(4-benzo[b]thiophen-4-ylpiperazin-1-yl)butoxy]-2-oxo-3,4-dihydro-2H-quinolin-1-ylmethyl ester]
CCC(C)C(=O)OCn1c(=O)ccc2ccc(OCCCCN3CCN(c4cccc5sccc45)CC3)cc21 (stereo not drawn) [Example 87, 2-methylbutyric acid 7-[4-(4-benzo[b]thiophen-4-ylpiperazin-1-yl)butoxy]-2-oxo-2H-quinolin-1-ylmethyl ester]
CCCCC(C)C(=O)OCn1c(=O)ccc2ccc(OCCCCN3CCN(c4cccc5sccc45)CC3)cc21 (stereo not drawn) [Example 88, 2-methylhexanoic acid 7-[4-(4-benzo[b]thiophen-4-ylpiperazin-1-yl)butoxy]-2-oxo-2H-quinolin-1-ylmethyl ester]
COC(=O)CNC(=O)OCN1C(=O)CCc2ccc(OCCCCN3CCN(c4cccc5sccc45)CC3)cc21 [Example 89, {7-[4-(4-benzo[b]thiophen-4-ylpiperazin-1-yl)butoxy]-2-oxo-3,4-dihydro-2H-quinolin-1-ylmethoxycarbonylamino}acetic acid methyl ester]
COC(=O)CN(C)C(=O)OCN1C(=O)CCc2ccc(OCCCCN3CCN(c4cccc5sccc45)CC3)cc21 [Example 90, ({7-[4-(4-benzo[b]thiophen-4-ylpiperazin-1-yl)butoxy]-2-oxo-3,4-dihydro-2H-quinolin-1-ylmethoxycarbonyl}methylamino)acetic acid methyl ester]
CCCCCCCCCCCCCCC(=O)OCN1C(=O)CCc2ccc(OCCCCN3CCN(c4cccc5sccc45)CC3)cc21 [Example 91, pentadecanoic acid 7-[4-(4-benzo[b]thiophen-4-ylpiperazin-1-yl)butoxy]-2-oxo-3,4-dihydro-2H-quinolin-1-ylmethyl ester]
CCCCCC(C)C(=O)OCN1C(=O)CCc2ccc(OCCCCN3CCN(c4cccc5sccc45)CC3)cc21 (stereo not drawn) [Example 92, 2-methylheptanoic acid 7-[4-(4-benzo[b]thiophen-4-ylpiperazin-1-yl)butoxy]-2-oxo-3,4-dihydro-2H-quinolin-1-ylmethyl ester]
O=C(NCCC(F)(F)F)OCN1C(=O)CCc2ccc(OCCCCN3CCN(c4cccc5sccc45)CC3)cc21 [Example 93, N-(3,3,3-trifluoropropyl)carbamic acid 7-[4-(4-benzo[b]thiophen-4-ylpiperazin-1-yl)butoxy]-2-oxo-3,4-dihydro-2H-quinolin-1-ylmethyl ester]
CCCC(C)C(=O)OCn1c(=O)ccc2ccc(OCCCCN3CCN(c4cccc5sccc45)CC3)cc21 (stereo not drawn) [Example 94, 2-methylpentanoic acid 7-[4-(4-benzo[b]thiophen-4-ylpiperazin-1-yl)butoxy]-2-oxo-2H-quinolin-1-ylmethyl ester]
CCCCCCCCCCCCCCCCC(=O)OCN1C(=O)CCc2ccc(OCCCCN3CCN(c4cccc5sccc45)CC3)cc21 [Example 95, heptadecanoic acid 7-[4-(4-benzo[b]thiophen-4-ylpiperazin-1-yl)butoxy]-2-oxo-3,4-dihydro-2H-quinolin-1-ylmethyl ester]
O=C(OCN1C(=O)CCc2ccc(OCCCCN3CCN(c4cccc5sccc45)CC3)cc21)c1ccoc1 [Example 96, furan-3-carboxylic acid 7-[4-(4-benzo[b]thiophen-4-ylpiperazin-1-yl)butoxy]-2-oxo-3,4-dihydro-2H-quinolin-1-ylmethyl ester]
COCCNC(=O)OCN1C(=O)CCc2ccc(OCCCCN3CCN(c4cccc5sccc45)CC3)cc21 [Example 97, N-(2-methoxyethyl)carbamic acid 7-[4-(4-benzo[b]thiophen-4-ylpiperazin-1-yl)butoxy]-2-oxo-3,4-dihydro-2H-quinolin-1-ylmethyl ester]
CCOC(=O)CCNC(=O)OCn1c(=O)ccc2ccc(OCCCCN3CCN(c4cccc5sccc45)CC3)cc21 [Example 99, 3-{7-[4-(4-benzo[b]thiophen-4-ylpiperazin-1-yl)butoxy]-2-oxo-2H-quinolin-1-ylmethoxycarbonylamino}-propionic acid ethyl ester]
CCCCOCCOCC(=O)OCN1C(=O)CCc2ccc(OCCCCN3CCN(c4cccc5sccc45)CC3)cc21 [Example 100, (2-butoxyethoxy)acetic acid 7-[4-(4-benzo[b]thiophen-4-ylpiperazin-1-yl)butoxy]-2-oxo-3,4-dihydro-2H-quinolin-1-ylmethyl ester]
COC(=O)CCCNC(=O)OCn1c(=O)ccc2ccc(OCCCCN3CCN(c4cccc5sccc45)CC3)cc21 [Example 101, 4-{7-[4-(4-benzo[b]thiophen-4-ylpiperazin-1-yl)butoxy]-2-oxo-2H-quinolin-1-ylmethoxycarbonylamino}butyric acid methyl ester]
CN1CCC(C(=O)OCN2C(=O)CCc3ccc(OCCCCN4CCN(c5cccc6sccc56)CC4)cc32)CC1 [Example 102, 1-methylpiperidine-4-carboxylic acid 7-[4-(4-benzo[b]thiophen-4-ylpiperazin-1-yl)butoxy]-2-oxo-3,4-dihydro-2H-quinolin-1-ylmethyl ester]
CCCCC(C)(C)C(=O)OCn1c(=O)ccc2ccc(OCCCCN3CCN(c4cccc5sccc45)CC3)cc21 [Example 103, 2,2-dimethylhexanoic acid 7-[4-(4-benzo[b]thiophen-4-ylpiperazin-1-yl)butoxy]-2-oxo-2H-quinolin-1-ylmethyl ester]
CCCCCCCCCCCCCCC(=O)OCn1c(=O)ccc2ccc(OCCCCN3CCN(c4cccc5sccc45)CC3)cc21 [Example 104, pentadecanoic acid 7-[4-(4-benzo[b]thiophen-4-ylpiperazin-1-yl)butoxy]-2-oxo-2H-quinolin-1-ylmethyl ester]
CC(C)CCC(=O)OCN1C(=O)CCc2ccc(OCCCCN3CCN(c4cccc5sccc45)CC3)cc21 [Example 105, 4-methylpentanoic acid 7-[4-(4-benzo[b]thiophen-4-ylpiperazin-1-yl)butoxy]-2-oxo-3,4-dihydro-2H-quinolin-1-ylmethyl ester]

same assay, conditions: sesame oil, oil or lipid, thermodynamic from solid

solubility, > 100 mg/mL:
CCCCCCCCCCCCCCCCCCNC(=O)OCN1C(=O)CCc2ccc(OCCCCN3CCN(c4cccc5sccc45)CC3)cc21 [Example 75, N-octadecylcarbamic acid 7-[4-(4-benzo[b]thiophen-4-ylpiperazin-1-yl)butoxy]-2-oxo-3,4-dihydro-2H-quinolin-1-ylmethyl ester]
CCCCCCCCCCCCCCCNC(=O)OCN1C(=O)CCc2ccc(OCCCCN3CCN(c4cccc5sccc45)CC3)cc21 [Example 76, N-pentadecylcarbamic acid 7-[4-(4-benzo[b]thiophen-4-ylpiperazin-1-yl)butoxy]-2-oxo-3,4-dihydro-2H-quinolin-1-ylmethyl ester]
CCCCCCCCCCCCCCCCCCN(C)C(=O)OCN1C(=O)CCc2ccc(OCCCCN3CCN(c4cccc5sccc45)CC3)cc21 [Example 79, N-methyl-N-octadecylcarbamic acid 7-[4-(4-benzo[b]thiophen-4-ylpiperazin-1-yl)butoxy]-2-oxo-3,4-dihydro-2H-quinolin-1-ylmethyl ester]
